Experimental data from PMC5627009, “Cyclotides Isolated from an Ipecac Root Extract Antagonize the Corticotropin Releasing Factor Type 1 Receptor” (Frontiers in Pharmacology, 2017).

Experiments:
human CRF1R [1] = target: T1, human CRF1R (Homo sapiens, UniProt P34998); test: CRE luciferase reporter gene assay (CRF1R antagonism/agonism); type: cell-based; conditions: fraction F, relative to the other identified cyclotides
T1 construct: expressed in transfected cells; host or cells: HEK293
T1 sequence (P34998 24-415): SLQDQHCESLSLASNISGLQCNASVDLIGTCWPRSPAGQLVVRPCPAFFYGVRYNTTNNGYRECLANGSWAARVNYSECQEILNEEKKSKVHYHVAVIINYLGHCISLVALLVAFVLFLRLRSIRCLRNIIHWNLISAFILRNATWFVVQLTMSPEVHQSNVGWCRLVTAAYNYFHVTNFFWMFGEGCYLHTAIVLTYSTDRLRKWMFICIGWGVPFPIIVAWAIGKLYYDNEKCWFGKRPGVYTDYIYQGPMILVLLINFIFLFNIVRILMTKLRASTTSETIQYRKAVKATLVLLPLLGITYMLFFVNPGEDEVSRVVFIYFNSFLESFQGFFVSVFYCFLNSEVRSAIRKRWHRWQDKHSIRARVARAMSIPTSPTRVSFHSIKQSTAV
Experimental: The ipecac extract was tested for its modulating effect on CRF1R signaling using a cell-based luciferase reporter assay. HEK293 cells transiently transfected with an C-terminally GFP-tagged human CRF1R and a luciferase-coupled cAMP response element (CRE) were stimulated with varying concentrations of ipecac extract (0.01–50 μg mL^-1) in the presence and absence of 50 nM endogenous corticotropin-releasing factor (CRF) ligand. Concentration-dependent inhibition of receptor signaling was determined by measuring luciferase induction and accounting for the fluorescence of receptor-positive cells. The amount of luminescence of the control samples incubated with hormone alone was defined as 100% efficacy (Figure 1E). The inhibitory potency of the corresponding cyclotide-containing ipecac extract was measured and normalized relative to the efficacy of the control. […] The inhibitory potency of the ipecac extract to antagonize CRF1R signaling was determined as half-maximal concentration (IC50) as 2.0 μg mL^-1 (Figure 1F). […]
After confirming the presence of cyclotides in the ipecac extract, we aimed to isolate the cyclotides responsible for CRF1R antagonism using a bioassay-guided fraction approach. […] All fractions were analyzed by analytical HPLC and MALDI-TOF MS. […] Fractions C and D were determined to contain at least two cyclotides (Figures 4B,C and Supplementary Figure 1). […]

human CRF1R [2] = target: T1, human CRF1R; test: cAMP accumulation assay at CRF1R (LANCE Ultra cAMP); type: cell-based
Experimental: (§1) Receptor-mediated cAMP accumulation was measured in HEK293 cells transiently transfected with the human CRF1R (with C-terminal GFP tag) using the LANCE® Ultra cAMP Detection kit (PerkinElmer, Waltham, MA, United States). To prepare for experiments, HEK293 cells were grown to confluence in a 6-well plate, followed by transfection with 2.5 μg of plasmid DNA per well using the Lipofectamine® 2000 transfection reagent (Thermo Fisher Scientific). After 4–6 h post-transfection, the cell media was replaced, followed by dissociation of cells via trituration and division of the cell suspension to avoid overcrowding over the subsequent 48 h of incubation at 37°C and 5% CO2. On the day of assay, cells were dissociated with phosphate buffered saline- (PBS-)EDTA solution (137 mM NaCl, 2.7 mM KCl, 10 mM Na2HPO4, 1.8 mM KH2PO4, 1 mM EDTA) and re-suspended in stimulation buffer (1.26 mM CaCl2, 0.49 mM MgCl2, 0.41 mM MgSO4, 5.33 mM KCl, 0.44 mM KH2PO4, 4.17 mM NaHCO3, 138 mM NaCl, 0.34 mM Na2HPO4, 5.56 mM D-glucose, 5 mM HEPES, 0.5 mM IBMX, 0.1% BSA; pH 7.4). Stimulation of cAMP accumulation via the human CRF1R and the human V2R used 500 cells and 300 cells (expressing these receptors) per well, respectively, in 384-well white Cellstar® plates (Greiner Bio-One, Kremsmuenster, Austria). Cells were incubated with the respective cognate receptor agonist peptides, in the absence and presence of cyclotide, for 30 min at 23°C in a final volume of 10 μL of stimulation buffer. Termination of cAMP accumulation was performed with the addition of 5 μL of Eu-cAMP tracer solution and 5 μL of ULight-anti-cAMP antibody solution, each prepared in detection buffer, followed by incubation of the plate for 1 h at 23°C with the lid on. After incubation, the plate was read in a Flexstation 3 plate reader (Molecular Devices, Sunnyvale, CA, United States).
Data from cellular assays were analyzed using GraphPad Prism 7.01 (GraphPad Software, San Diego, CA, United States). Concentration-response curve data were fitted to the three-parameter logistic equation to derive estimates of potency (LogIC50, luciferase; LogEC50, cAMP) and efficacy (Emax), relative to the maximal agonist control response. CRF LogEC50 values in the absence and presence of caripe 8 were statistically compared via extra sum-of-squares F test analysis. Other statistical analyses were performed as appropriate using one-way analysis of variance (ANOVA) with Bonferroni’s post-test, and significance taken as p < 0.05.

human V2R = test: cAMP accumulation assay at vasopressin V2 receptor (LANCE Ultra cAMP); type: cell-based; conditions: HEK293 transiently expressing human V2R, caripe 8 26 nM & 260 nM, 30 min, 23°C, five or more experiments in triplicate, not statistically different (One-way ANOVA)
Experimental: as §1, with “Stimulation of cAMP accumulation via the human CRF1R and the human V2R used 500 cells and 300 cells (expressing these receptors) per well, respectively, in 384-well white Cellstar® plates (Greiner Bio-One, Kremsmuenster, Austria). Cells were incubated with the respective cognate receptor agonist peptides, in the absence and presence of cyclotide, for 30 min at 23°C in a final volume of 10 μL of stimulation buffer. Termination of cAMP accumulation was performed with the addition of 5 μL of Eu-cAMP tracer solution and 5 μL of ULight-anti-cAMP antibody solution, each prepared in detection buffer, followed by incubation of the plate for 1 h at 23°C with the lid on.” left out
Data from cellular assays were analyzed using GraphPad Prism 7.01 (GraphPad Software, San Diego, CA, United States). […]

oxytocin receptor = conditions: ref Koehbach et al. (2013b); cited from earlier work
Source text: (§2) Cyclotides are plant-derived cyclic peptides that are currently of great interest as lead molecules and peptide scaffolds for pharmaceutical drug development ([Thell et al., 2016]; [Craik and Du, 2017]). They were first isolated from O. affinis (Rubiaceae), a plant used as herbal preparation (‘kalata-kalata’) in traditional Congolese medicine for its uterotonic properties ([Gran, 1970]; [Craik et al., 1999]; [Gran et al., 2000]). Evidence-based proof of the plant’s traditional use in childbirth and post-partum care was provided in 2013; [Koehbach et al. (2013b)] isolated the cyclotide kalata B ...

vasopressin V1a receptor = conditions: ref Koehbach et al. (2013b); cited from earlier work
Source text: as §2

## GVIPCGESCVFIPCITAAI–GCSCKKKVCYRN (bicyclic or more) [caripe 8, natural bracelet cyclotide isolated from fraction F of ipecac root extract]
Human CRF1R [1]
  relative effectiveness as inhibitor of CRF1R-mediated luciferase activity: the most effective inhibitor
Human CRF1R [2]; 260 nM caripe 8, CRF concentration-response, HEK293 with human CRF1R, 30 min, 23°C, pH 7.4, six independent experiments in triplicate
  fold reduction of CRF potency: approximately 4.5 fold
Human CRF1R [2]; 260 nM caripe 8, CRF concentration-response, six experiments in triplicate
  effect on CRF maximal response: lack of effect
Human CRF1R [2]; 260 nM caripe 8, extra sum-of-squares F test, six experiments in triplicate
  difference of CRF LogEC50 in absence and presence of caripe 8: significantly different from each other (p < 0.05)
Human CRF1R [2]; 2.6, 26 and 260 nM cyclotide with an EC50 / approximate EC80 (Fig. 6A) of CRF, 30 min, 23°C, three experiments in triplicate
  inhibition of CRF1R-mediated cAMP response to CRF: modest concentration-dependent inhibition
Human CRF1R [2]; HEK293, human CRF1R, submaximal agonist concentrations of forskolin
  effect on cAMP accumulation in combination with submaximal forskolin: no effect
Human CRF1R [2]; HEK293 transiently expressing human CRF1R, cyclotide alone, 30 min, 23°C, pH 7.4
  intrinsic activity in the cAMP assay: did not exhibit any intrinsic activity
Human CRF1R [2]; suggested from modest and limited antagonism
  mode of antagonism at CRF1R: does not interact competitively with the CRF binding site
Human CRF1R [2]; titration with CRF, data not shown
  limit of concentration-dependent inhibition of CRF-mediated cAMP response (data not shown): observed to reach a threshold
Human V2R; AVP 50 pM
  effect on arginine-vasopressin-stimulated cAMP accumulation: not altered
Human V2R; forskolin 300 nM
  effect on forskolin-stimulated cAMP accumulation: not altered

## kalata B7
Oxytocin receptor
  affinity and potency at oxytocin receptor: moderate affinity and potency (μM-concentration range)
  mode of action at oxytocin receptor: partial agonist
Vasopressin V1a receptor
  affinity and potency at vasopressin V1a receptor: moderate affinity and potency (μM-concentration range)
  mode of action at vasopressin V1a receptor: partial agonist
